Laboratory results taken from DBAASP.
Converted amounts (≈) assume the structure as drawn.

Tests used:
Test in all cases: ≥ marks a high value that may be exact or a test limit, other limits are often not marked, values filed in µg/mL are converted to µM
[1] = system: Staphylococcus aureus ATCC 25923
[2] = system: Bordetella bronchiseptica CUN 11844-99
[3] = system: Pseudomonas aeruginosa CUN 4158-02
[4] = system: Escherichia coli ATCC 25922
[5] = system: Escherichia coli NCTC 10418
[6] = system: Staphylococcus aureus NCTC 12981
[7] = system: Candida krusei ATCC 6258
[8] = system: Candida albicans ATCC 2048
[9] = system: Candida glabrata ATCC 90525
[10] = system: Candida parapsilosis ATCC 20224
[11] = system: Candida tropicalis ATCC 20240
[12] = system: Aeromonas salmonicida CIP 103209T
[13] = system: Salmonella typhimurium CIP 103446
[14] = system: Vibrio alginolyticus CIP 109819
[15] = system: Listeria monocytogenes CIP 110871
[16] = system: Staphylococcus aureus CIP 53.156
[17] = system: Escherichia coli CIP 54.8T
[18] = system: Enterococcus faecalis CIP 76.117
[19] = system: Bacillus megaterium CIP 51.17
[20] = system: Staphylococcus aureus CCT 6538
[21] = system: Escherichia coli CCT 1457
[22] = system: Pseudomonas aeruginosa ATCC 15422
[23] = system: Salmonella enterica subsp. enterica serovar Choleraesuis ATCC 10708
[24] = system: Salmonella enterica subsp. enterica serovar Typhimurium ATCC 14028
[25] = system: Staphylococcus epidermidis ATCC 12228
[26] = system: Bacillus thuringiensis ATCC 10792
[27] = system: Micrococcus luteus ATCC 4698
[28] = system: Staphylococcus aureus CCT 2580
[29] = system: Streptococcus mutans AU159
[30] = system: Escherichia coli ATCC 11775
[31] = system: Streptococcus pneumoniae ATCC 11733
[32] = system: Pseudomonas aeruginosa ATCC 13388
[33] = system: Enterococcus faecium CCT 5079
[34] = system: Enterococcus hirae ATCC 10541
[35] = system: Bacillus cereus ATCC 11778
[36] = system: Staphylococcus pseudintermedius
[37] = system: Pseudomonas aeruginosa ATCC 27853
[38] = system: Pseudomonas aeruginosa
[39] = system: Staphylococcus aureus ATCC 29213
[40] = system: Serratia marcescens ATCC 8100
[41] = system: Escherichia coli D21
[42] = system: Bacillus megaterium Bm11
[43] = system: Escherichia coli ML-35

With `CC[C@H](C)[C@H](NC(=O)CN)C(=O)NCC(=O)N[C@@H](CCCCN)C(=O)N[C@@H](Cc1ccccc1)C(=O)N[C@@H](CO)C(=O)N[C@@H](CCCCN)C(=O)N[C@@H](CCCCN)C(=O)NCC(=O)N[C@@H](C)C(=O)N[C@@H](C)C(=O)N[C@@H](C)C(=O)N[C@@H](CCCN=C(N)N)C(=O)N[C@@H](CCCN=C(N)N)C(=O)N[C@@H](CCCN=C(N)N)C(=O)N[C@@H](CCCCN)C(=O)N[C@H](C(=O)N[C@@H](CO)C(=O)N[C@@H](CC(C)C)C(=O)N[C@@H](CCCCN)C(=O)N[C@@H](C)C(=O)N[C@@H](CC(C)C)C(N)=O)C(C)C` [GIGKFSKKGAAARRRKVSLKAL] the MIC [1] was over 219 µM, the MIC [2] was at least 219 µM and the MIC [3] was at least 219 µM. It also gave an MIC [4] of over 219 µM.

With `NC(=O)[C@H](Cc1c[nH]c2ccccc12)NC(=O)[C@H](CCCN=C(N)N)NC(=O)[C@@H](N)Cc1c[nH]c2ccccc12` [WRW] the MIC [1] was 183 µM (≈ 99.8 µg/mL), the MIC [5] was at least 234 µM and the MIC [6] was at least 234 µM. It also gave an MIC [4] of over 366 µM.

`C[C@H](NC(=O)CN)C(=O)N[C@@H](CCCCN)C(=O)N[C@@H](CCC(=O)O)C(=O)N[C@@H](CCCN=C(N)N)C(=O)N[C@@H](C)C(=O)N[C@@H](Cc1cnc[nH]1)C(=O)N[C@@H](CCC(N)=O)C(=O)O` [GAKERAHQ] gave an MIC [7] of at least 240 µM, an MIC [8] of at least 240 µM and an MIC [9] of at least 300 µM. It also gave an MIC [10] of at least 300 µM and an MIC [11] of at least 290 µM.

In the case of `CC[C@H](C)[C@H](NC(=O)[C@@H](N)CCCCN)C(=O)N[C@@H](CCCN=C(N)N)C(=O)N[C@@H](Cc1ccccc1)C(=O)N[C@H](C(=O)N[C@@H](CCCN=C(N)N)C(=O)N[C@H](C(=O)N[C@H](C(=O)N[C@@H](CO)C(=O)N[C@@H](CCCN=C(N)N)C(=O)N[C@@H](CC(C)C)C(=O)N[C@@H](CC(C)C)C(=O)N[C@@H](CCCCN)C(=O)N[C@@H](C)C(=O)N[C@@H](C)C(=O)N[C@@H](CC(C)C)C(=O)N[C@@H](C)C(=O)N[C@@H](CO)C(=O)N[C@H](C(=O)O)[C@@H](C)O)C(C)C)[C@@H](C)O)[C@@H](C)O` [KIRFTRTVSRLLKAALAST], the MIC [12] is reported as 15.8 µM (≈ 33.7 µg/mL), the MIC [13] is reported as at least 86.6 µM and the MIC [14] is reported as at least 35.4 µM. It also gave an MIC [15] of at least 50 µM, an MIC [16] of 15.8 µM (≈ 33.7 µg/mL) and an MIC [17] of 3.16 µM (≈ 6.74 µg/mL). The MIC [18] was at least 122 µM and the MIC [19] was 3.16 µM (≈ 6.74 µg/mL).

`CC[C@H](C)[C@H](N)C(=O)N[C@@H](CC(N)=O)C(=O)N[C@@H](Cc1c[nH]c2ccccc12)C(=O)N[C@@H](CC(C)C)C(=O)N[C@@H](C)C(=O)N[C@H](C(=O)N[C@@H](C)C(=O)N[C@@H](CCCCN)C(=O)N[C@@H](CCCCN)C(=O)N[C@H](C(=O)N[C@@H](C)C(=O)NCC(=O)N[C@@H](CCSC)C(=O)N[C@@H](CC(C)C)C(N)=O)C(C)C)[C@@H](C)CC` [INWLAIAKKVAGML] showed an MIC [20] of 2.62 µM (≈ 4 µg/mL), an MIC [21] of 2.62 µM (≈ 4 µg/mL) and an MIC [22] of 10.5 µM (≈ 16 µg/mL). The MIC [1] was 15.1 µM (≈ 23 µg/mL), the MIC [23] was 10.5 µM (≈ 16 µg/mL) and the MIC [24] was 20.3 µM (≈ 31 µg/mL). It also gave an MIC [25] of 2.62 µM (≈ 4 µg/mL), an MIC [26] of 5.24 µM (≈ 8 µg/mL) and an MIC [27] of 2.62 µM (≈ 4 µg/mL). It also gave an MIC [28] of 2.62 µM (≈ 4 µg/mL), an MIC [29] of 2.62 µM (≈ 4 µg/mL) and an MIC [30] of 5.24 µM (≈ 8 µg/mL). The MIC [31] was 1.31 µM (≈ 2 µg/mL), the MIC [32] was at least 41.2 µM and the MIC [33] was 5.24 µM (≈ 8 µg/mL). The MIC [34] was 5.24 µM (≈ 8 µg/mL), the MIC [35] was 10.5 µM (≈ 16 µg/mL) and the MIC [4] was 2.62 µM (≈ 4 µg/mL).

`CC[C@H](C)[C@H](NC(=O)[C@H](CC(C)C)NC(=O)[C@@H]1CCCN1C(=O)[C@H](CCCCN)NC(=O)[C@H](CC(C)C)NC(=O)[C@H](CCCN=C(N)N)NC(=O)[C@H](CCCN=C(N)N)NC(=O)[C@H](CC(C)C)NC(C)=O)C(=O)N[C@@H](CCCN=C(N)N)C(=O)N1CCC[C@H]1C(=O)N[C@@H](Cc1c[nH]c2ccccc12)C(=O)N[C@@H](CC(C)C)C(=O)N[C@@H](CCCN=C(N)N)C(=O)N1CCC[C@H]1C(=O)N[C@@H](CC(C)C)C(=O)N[C@@H](CCCN=C(N)N)C(=O)N[C@@H](CCCN=C(N)N)C(=O)N[C@@H](Cc1c[nH]c2ccccc12)C(=O)N[C@@H](Cc1c[nH]c2ccccc12)C(=O)N[C@@H](Cc1c[nH]c2ccccc12)C(N)=O` [LRRLKPLIRPWLRPLRRWWW] gave an MIC [36] of 16.2 µM (≈ 45.9 µg/mL), an MIC [37] of 5.72 µM (≈ 16.2 µg/mL) and an MIC [38] of 4.04 µM (≈ 11.5 µg/mL). For the same compound, the MIC [39] was 11.4 µM (≈ 32.5 µg/mL).

Compound `CC(C)C[C@H](NC(=O)[C@H](Cc1ccc(O)cc1)NC(=O)[C@@H]1CCCN1C(=O)[C@@H]1CCCN1C(=O)[C@H](CCCN=C(N)N)NC(=O)[C@@H]1CCCN1C(=O)[C@H](CCCN=C(N)N)NC(=O)[C@H](CCCN=C(N)N)NC(=O)[C@@H](N)CCCN=C(N)N)C(=O)N[C@@H](CCCN=C(N)N)C(=O)N1CCC[C@H]1C(=O)N[C@@H](CCCN=C(N)N)C(=O)N1CCC[C@H]1C(=O)N1CCC[C@H]1C(=O)N1CCC[C@H]1C(=O)O` [RRRPRPPYLRPRPPP] has an MIC [40] of at least 32 µM, an MIC [41] of 16 µM (≈ 30.6 µg/mL) and an MIC [24] of 32 µM (≈ 61.2 µg/mL). The MIC [25] was over 64 µM, the MIC [42] was at least 32 µM and the MIC [43] was at least 32 µM.
